Assay results: US8697888B2, “Substituted (1-(methylsulfonyl)azetidin-3-yl)(heterocycloalkyl)methanone analogs as antagonists of muscarinic acetylcholine M1 receptors” (Vanderbilt University, priority 2012, dated 2014)

Molecular target: T1, mAChR M1 (UniProt P11229)
T1 sequence (P11229 1-460): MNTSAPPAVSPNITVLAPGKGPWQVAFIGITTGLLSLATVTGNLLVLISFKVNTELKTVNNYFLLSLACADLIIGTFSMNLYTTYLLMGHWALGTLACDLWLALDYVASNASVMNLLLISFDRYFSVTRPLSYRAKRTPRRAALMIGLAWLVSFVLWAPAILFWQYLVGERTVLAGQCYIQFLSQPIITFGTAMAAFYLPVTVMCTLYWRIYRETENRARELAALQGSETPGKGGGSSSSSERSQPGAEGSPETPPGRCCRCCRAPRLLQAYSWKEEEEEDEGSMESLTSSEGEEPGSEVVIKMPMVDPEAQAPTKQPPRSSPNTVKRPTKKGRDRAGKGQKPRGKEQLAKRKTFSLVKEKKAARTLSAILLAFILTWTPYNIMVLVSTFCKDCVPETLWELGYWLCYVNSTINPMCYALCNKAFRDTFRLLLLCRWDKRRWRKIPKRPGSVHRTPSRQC
Test: mAChR M1 cell-based functional assay (calcium mobilization, antagonist mode)
Details: for IC50: concentration of antagonist decreasing calcium flux by 50%, EC80 acetylcholine response, CHO-K1 cells expressing mAChR M1, read-out: Potency (IC50)
Text: Chinese hamster ovary (CHO-K1) cells stably expressing rat (r)M1 were purchased from the American Type Culture Collection and cultured according to their indicated protocol. CHO cells stably expressing human (h)M2, hM3, and hM5 were described previously (Levey, et al., 1991); hM1 and hM4 cDNAs were purchased from Missouri S&T cDNA Resource; rM4 cDNA was provided by T. I. Bonner (National Institutes of Health, Bethesda, Md.). rM2 and rM3 were cloned from a rat brain cDNA library and sequence verified. hM1, rM2, rM3, hM4, and rM4 cDNAs were used to stably transfect CHO-K1 cells purchased from the American Type Culture Collection using Lipofectamine-2000. To make stable rM2, hM2, rM3, hM4, and rM4 cell lines for use in calcium mobilization assays, these cells also were stably transfected with a chimeric G-protein (Gqi5) (provided by B. R. Conklin, University of California, San Francisco) using Lipofectamine 2000. rM1, hM1, rM3, hM3, rM5, and hM5 cells were grown in Ham's F-12 medium containing 10% heat-inactivated fetal bovine serum (FBS), 20 mM HEPES, and 50 μg/mL G418 sulfate. rM2-Gqi5, hM2-Gqi5, and hM4-Gqi5 cells were grown in the same medium also containing 500 μg/mL Hygromycin B. Stable rM4-Gqi5 cells were grown in DMEM containing 10% heat-inactivated FBS, 20 mM HEPES, 400 μg/mL G418 sulfate, and […].
For high throughput measurement of antagonist inhibited increases in intracellular calcium, CHO-K1 cells stably expressing muscarinic receptors were plated in growth medium lacking G418 and hygromycin at 15,000 cells/20 μL/well in Greiner 384-well black-walled, tissue culture (TC)-treated, clear-bottom plates (VWR). Cells were incubated overnight at 37° C. and 5% CO2. The next day, cells were washed using an ELX 405 (BioTek) with four washes (80 μL) of assay buffer then aspirated to 20 μL. Next, 20 μL of 16 μM Fluo-4/acetoxymethyl ester (Invitrogen, Carlsbad, Calif.) prepared as a 2.3 mM stock in DMSO and mixed in a 1:1 ratio with 10% (w/v) Pluronic F-127 and diluted in assay buffer was added to the wells and the cell plates were incubated for 50 min at 37° C. and 5% CO2. Dye was removed by washing with the ELX 405 (four 80 μL washes of assay buffer) then aspirated to 20 μL. Compound master plates were formatted in an 11 point CRC format (1:3 dilutions) in 100% DMSO with a starting concentration of 10 mM using the BRAVO liquid handler (Agilent). Test compound CRCs were then transferred to daughter plates (240 nL) using the Echo acoustic plate reformatter (Labcyte, Sunnyvale, Calif.) and then diluted into assay buffer (40 μL) to a 2× stock using a Thermo Fisher Combi (Thermo Fisher Scientific, Waltham, Mass.).
Calcium flux was measured using the Functional Drug Screening System (FDSS) 6000 (Hamamatsu Corporation, Tokyo, Japan) as an increase in the fluorescent static ratio. Compounds were applied to cells (20 μL, 2×) using the automated system of the FDSS 6000 at 4 s into the 300 s protocol and the data were collected at 1 Hz. At 144 s into the 300 s protocol, 10 μL of an EC20 concentration of the muscarinic receptor agonist acetylcholine was added (5×), followed by the addition of 12 μL an EC80 concentration of acetylcholine at the 230 s time point (5×). Agonist activity was analyzed as a concentration-dependent increase in calcium mobilization upon compound addition. Positive allosteric modulator activity was analyzed as a concentration-dependent increase in the EC20 acetylcholine response. Antagonist activity was analyzed as a concentration-dependent decrease in the EC80 acetylcholine response. Concentration-response curves were generated using a four-parameter logistical equation in XLfit curve fitting software (IDBS, Bridgewater, N.J.) for Excel (Microsoft, Redmond, Wash.) or Prism (GraphPad Software, Inc., San Diego, Calif.).
The calcium mobilization assay was used to determine “potency”.

[1] = activity remaining at top dose of 30 μM test compound, as percentage of the response to an approx. EC80 concentration of ACh
[2] = dash = baseline or about zero remaining activity (table footnote)

Structure (SMILES) | Remaining Activity (%) [1] | IC50 [nM] | Remaining Activity (%) [2]
O=C(C1CN(S(=O)(=O)c2cccc(OC(F)F)c2)C1)N1CCN(c2ccncc2)CC1 [B68] | ≧80% | > 10000 | 
Cc1cc(S(=O)(=O)N2CC(C(=O)N3CCN(c4ccncc4)CC3)C2)cnc1Cl [B7] |  |  | — (Unless otherwise indicated with a numerical value, the percent remaining activity is baseline or about zero, i.e. as indicated by “—”)
Cc1cc2c(S(=O)(=O)N3CC(C(=O)N4CCN(c5ccncc5)CC4)C3)cccc2cn1 [B22] |  |  | — (Unless otherwise indicated with a numerical value, the percent remaining activity is baseline or about zero, i.e. as indicated by “—”)
O=C(C1CN(S(=O)(=O)c2cccc3ncccc23)C1)N1CCN(c2ccncc2)CC1 [B26] |  |  | — (Unless otherwise indicated with a numerical value, the percent remaining activity is baseline or about zero, i.e. as indicated by “—”)
O=C(C1CN(S(=O)(=O)c2cccc(Cl)c2Cl)C1)N1CC2CN(c3ccncc3)CC2C1 (stereo not drawn) [B58] |  |  | — (Unless otherwise indicated with a numerical value, the percent remaining activity is baseline or about zero, i.e. as indicated by “—”)
O=C(C1CN(S(=O)(=O)c2cccc(F)c2)C1)N1CC2CN(c3ccncc3)CC2C1 (stereo not drawn) [B59] |  | 2100 | — (Unless otherwise indicated with a numerical value, the percent remaining activity is baseline or about zero, i.e. as indicated by “—”)
O=C(C1CN(S(=O)(=O)c2cccc(F)c2)C1)N1CCN(c2ccncc2)CC1 [B23] |  | 1500 | — (Unless otherwise indicated with a numerical value, the percent remaining activity is baseline or about zero, i.e. as indicated by “—”)
O=C(C1CN(S(=O)(=O)c2cccc3nonc23)C1)N1CCN(c2nccs2)CC1 [B33] | 48% | > 10000 | 

More lines, main results first:

Remaining Activity (%) [1] | IC50 [nM] | Structure (SMILES) | Remaining Activity (%) [2]
 | 860 | O=C(C1CN(S(=O)(=O)c2cccnc2Cl)C1)N1CCN(c2ccncc2)CC1 [B21] | — (Unless otherwise indicated with a numerical value, the percent remaining activity is baseline or about zero, i.e. as indicated by “—”)
 | 2800 | O=C(C1CN(S(=O)(=O)c2ccccc2OC(F)(F)F)C1)N1CCN(c2ccncc2)CC1 [B29] | — (Unless otherwise indicated with a numerical value, the percent remaining activity is baseline or about zero, i.e. as indicated by “—”)
60% | > 10000 | O=C(C1CN(S(=O)(=O)c2cccc3cnccc23)C1)N1CCc2cccnc2C1 [B51] | 
 | 960 | O=C(C1CN(S(=O)(=O)c2cccc3nonc23)C1)N1CC2CN(c3ccncc3)CC2C1 (stereo not drawn) [B56] | — (Unless otherwise indicated with a numerical value, the percent remaining activity is baseline or about zero, i.e. as indicated by “—”)
≧80% | > 10000 | O=C(C1CN(S(=O)(=O)c2ccc3[nH]c(=O)oc3c2)C1)N1CCN(c2ccncc2)CC1 [B75] | 
59% | > 10000 | Cn1ccc2cc(S(=O)(=O)N3CC(C(=O)N4CCN(c5ccncc5)CC4)C3)ccc21 [B50] | 
≧80% | > 10000 | CCC(C)S(=O)(=O)N1CC(C(=O)N2CC3CN(c4ccncc4)CC3C2)C1 (stereo not drawn) [B85] | 
≧80% | > 10000 | Cn1nccc1-c1cccc(S(=O)(=O)N2CC(C(=O)N3CCN(c4ccncc4)CC3)C2)c1 [B65] | 
 | 350 | O=C(C1CN(S(=O)(=O)c2ccc(Cl)nc2)C1)N1CCN(c2ccncc2)CC1 [B12] | — (Unless otherwise indicated with a numerical value, the percent remaining activity is baseline or about zero, i.e. as indicated by “—”)
